From US20190369111A1, “MOLECULAR KINETICS EVALUATION METHOD AND SCREENING METHOD” (Tokyo University of Science Foundation, priority 2016, published 2019)

Target: T1, wild-type K-Ras protein (Mus musculus, UniProt P32883)
T1 construct: intraperitoneally administered to C57BL/6J wild-type mice; from tissue; host or cells: C57BL/6J wild-type mice: spleen, pancreas, liver, kidneys, colon, lungs, heart
Assay: Degradation of wild-type K-Ras protein in each tissue of mouse after administration, Western blot analysis
Assay type: in vivo
Description: TUS-007 was dissolved in DMSO, and then dissolved in corn oil so that the concentration of DMSO was 10 vol %, and then intraperitoneally administered to C57BL/6J wild-type mice (8 to 9 weeks old, male) (CLEA Japan, Inc.) in an amount of 40 mg/kg body weight or 80 mg/kg body weight (n=3 to 4). Furthermore, in addition to a group in which TUS-007 was administered, a group in which Ras-SOS had been administered in a dose of 80 mg/kg body weight was prepared. As a control, an injection carrier (corn oil containing 10 vol % DMSO) was used. The mice were kept under an environment of ad libitum access to food and water. The mice were dissected under deep anesthesia by Somnopentyl (Kyoritsu Seiyaku Corporation) 48 hours after administration. Abdominal section was performed, and then the spleen, pancreas, liver, kidneys, colon, lungs, and heart were sequentially extracted and flash frozen in liquid nitrogen. Each tissue frozen in liquid nitrogen was stored in a deep freezer at −80° C.
The frozen tissues (spleen: 0.02 g, other tissues: 0.04 g) were each triturated, and then 500 μL of TKM tissue lysis buffer (50 mM triethanolamine (pH 7.8), 50 mM KCl, 5 mM MgCl2, 0.25 M sucrose, 1 mM PMSF, Protein Inhibitors Cocktail-EDTA free (Nacalai Tesque, Inc.), 1 mM DTT, and a recombinant RNase inhibitor (0.2 U/μL, Takara Bio) were added, and dissolved by rotation for 15 minutes (1 rpm, 25° C.). Then, the resultant product was subjected to centrifugation (at 13800 rpm×30 minutes, 4° C.), and the supernatants (each tissue extract) were collected. The concentration of the extracted proteins was quantified by a spectrophotometer.
Each tissue extract collected was subjected to Western blot analysis. An SDS-PAGE gel was prepared using TGX™ FastCast™ Acrylamide Kit, 12% (Bio-Rad). Electrophoresis samples were prepared in a 6×SDS-PAGE sample buffer (62.5 mM Tris-HCl pH 6.8, 2% SDS, 5% 2-mercaptoethanol, 10% glycerol, 0.25% BPB), and placed on a heat block at 95° C. for 5 minutes. Electrophoresis was performed at 160 V for 60 minutes (electrophoresis buffer; 195 mM glycine, 25 mM Tris).
After electrophoresis, proteins were transferred to a PVDF membrane (Immobion™-P, Millipore) under conditions of 100 V and 1.5 hours using a tank-type blotting device and a transfer buffer (25 mM Tris-HCl, 195 mM glycine, 0.01% SDS, 15% methanol). The membrane was split into two at the position of a 25 kDa marker. The membrane after transfer was shaken and blocked in 5% skim milk/TBS-T (100 mM Tris-HCl, 150 mM NaCl, 0.1% Tween-20, pH 7.6) at room temperature for 30 minutes. After blocking, a primary antibody reaction was performed in 5% skim milk/TBS-T. As the primary antibody, an anti-K-Ras antibody (sc-30, SantaCruz, diluted 500 times) and an anti-GAPDH antibody (sc-32233, SantaCruz, diluted 20000 times) were used. The membrane was shaken at room temperature for 60 minutes (anti-K-Ras antibody) or at 4° C. overnight (anti-GAPDH antibody), and then the membrane was washed with TBS-T for 5 minutes. It is noted that washing was performed four times. After the primary antibody reaction, a secondary antibody reaction was performed in 1% skim milk/TBS-T. The membrane was shaken at room temperature for 30 minutes, and then the membrane was washed with TBS-T for 5 minutes. It is noted that washing was performed four times. Furthermore, the membrane was washed with TBS (100 mM Tris-HCl, 150 mM NaCl, pH 7.6) for 10 minutes. Subsequently, the membrane was treated with a chemiluminescence reagent Immobilon™ Western (Millipore), and then chemiluminescence was detected using a lumino image analyzer LAS-3000 (FUJIFILM Corporation). Detected bands were quantified with an image processing software ImageJ (NIH).

T1 sequence (P32883 whole entry): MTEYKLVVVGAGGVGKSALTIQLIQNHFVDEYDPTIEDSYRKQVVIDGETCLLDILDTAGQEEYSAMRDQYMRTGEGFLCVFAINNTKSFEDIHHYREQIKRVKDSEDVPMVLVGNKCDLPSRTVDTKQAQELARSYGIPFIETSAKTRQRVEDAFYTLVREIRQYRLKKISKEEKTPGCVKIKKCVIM

## CC[C@@H](C)[C@H](NC(=O)CCCCCCNC(=O)[C@H](CC(C)C)NC(=O)CNC(=O)c1cc(Cl)ccc1Cl)C(=O)Nc1ccc2[nH]c(Cc3c[nH]c4ccccc34)nc2c1 [TUS-007]
Intraperitoneal 40 or 80 mg/kg body weight, 48 hours after administration, colon
  amount of wild-type K-Ras protein in colon: reduced in a concentration dependent manner
Intraperitoneal 40 or 80 mg/kg body weight, 48 hours after administration, heart
  amount of wild-type K-Ras protein in heart: not reduced
Intraperitoneal 40 or 80 mg/kg body weight, 48 hours after administration, kidneys
  amount of wild-type K-Ras protein in kidneys: reduced in a concentration dependent manner
Intraperitoneal 40 or 80 mg/kg body weight, 48 hours after administration, liver
  amount of wild-type K-Ras protein in liver: not reduced
Intraperitoneal 40 or 80 mg/kg body weight, 48 hours after administration, lungs
  amount of wild-type K-Ras protein in lungs: not reduced
Intraperitoneal 40 or 80 mg/kg body weight, 48 hours after administration, pancreas
  amount of wild-type K-Ras protein in pancreas: reduced in a concentration dependent manner
Intraperitoneal 40 or 80 mg/kg body weight, 48 hours after administration, spleen
  amount of wild-type K-Ras protein in spleen: reduced in a concentration dependent manner
Suggested from K-Ras degradation in tissues
  transfer property to tissues (molecular kinetics): showed a higher transfer property in the pancreas, colon, kidneys, and spleen as compared with the lungs, liver, and heart
